# Entries after “also recorded” stand apart in the source; their conditions may differ. Positions of bridges follow the written chain, without caps; N, C: chain ends. Chains are numbered I, II in the order given. No end group written: not given here.
# B1: HD-5 (peptide, UniProt Q01523 20-94, looked up)
# Defensin alpha 5: ESLQERADEATTQKQSGEDNQDLAISFAGNGLSALRTSGSQARATCYCRTGRCATRESLSGVCEISGRLYRLCCR
# modifications: Defensin-5
# Assays:
# [1] = tested on: representative Gram-positive and Gram-negative bacteria; assay: modified broth microdilution assay, summary over strains; format: cell-based; conditions: 100 mM NaCl versus no NaCl
# Protocol: All bacterial strains were purchased from either MicroBiologics (St. Cloud, Minn.) or ATCC (Manassas, Va.). Bacteria were grown in trypticase soy broth (TSB) overnight and subcultured in the same broth for 3-4 h at 37° C. in a shaking incubator to the mid log phase. To study the antibacterial spectrum, a modified broth microdilution assay was used as described (26). Briefly, the mid log phase bacteria were washed with 25 mM sodium phosphate buffer, pH 7.4, and suspended in 5% TSB in 25 mM sodium phosphate, pH 7.4, to 5×10^5 CFU/ml with and without 100 mM NaCl. Bacteria (90 μl) were then dispensed in a 96-well plate, followed by addition of peptides (10 μl) serially diluted in 0.01% acetic acid. After overnight incubation at 37° C., the minimum inhibitory concentration (MIC) of each peptide was determined as the lowest concentration that gave no visible bacterial growth.
# Refolded rattusin was then used to study its antibacterial activity against representative Gram-positive and Gram-negative bacteria by a modified broth microdilution assay with and without 100 mM NaCl.
# E. coli O157:H7 [2] = assay: effect of Mg2+ on antibacterial activity; format: cell-based; conditions: 4 μM peptide, 0, 1, 2 and 5 mM MgCl2, 4 h
# Protocol: (§1) FIG. 7. Effect of Mg^2+ on the antibacterial activity of rattusin and cryptdin-4 against S. aureus (A) and E. coli O157:H7 (B). S. aureus or E. coli were incubated with rattusin, cryptdin-4, or an equal volume of 0.01% acetic acid (no peptide) in 25 mM sodium phosphate buffer, containing 1% TSB with 0, 1, 2 and 5 mM MgCl2, pH 7.4, for 4 h. Surviving bacteria were plated and counted. Both peptides were used at identical concentrations for each bacterial strain (2 and 4 μM against S. aureus and E. coli, respectively). Data shown are means ± SEM of 2-3 independent experiments.
# (§2) The effect of Mg^2+ on the antibacterial activity was studied by incubating rattusin and cryptdin-4 for 4 h with 90 μl of 5×10^5 CFU/ml Staphylococcus aureus at a concentration of 2 μM each or with E. coli O157:H7 at a concentration of 4 μM each in 1% TSB, 25 mM sodium phosphate buffer, containing 0, 1, 2 and 5 mM of MgCl2, pH 7.4.
# S. aureus [3] = assay: effect of Mg2+ on antibacterial activity; format: cell-based, Staphylococcus aureus; conditions: 2 μM peptide, 0, 1, 2 and 5 mM MgCl2, 4 h
# Protocol: as §1, §2
# [4] = tested on: E. coli O157:H7 ATCC 700728; assay: kinetics of bacterial killing, colony counting assay; format: cell-based; conditions: 4 μM peptide; for killing of E. coli: no NaCl, within 2 h
# Protocol: (§3) FIG. 4. Kinetics of killing of E. coli O157:H7 in the absence (A) and presence (B) of 100 mM NaCl by rattusin, cryptdin-4 and HD-5. E. coli O157:H7 ATCC 700728 was incubated with 4 μM rattusin, cryptdin-4, HD-5, or an equal volume of 0.01% acetic acid (no peptide) in duplicate in 25 mM sodium phosphate buffer, pH 7.4, 1% TSB with and without 100 mM NaCl for 10, 30, 60, 120 and 240 min. Surviving bacteria were plated and counted. Data shown are means ± SEM of two independent experiments.
# (§4) To study the kinetics of bacterial killing, a standard colony counting assay was used as described (26). Rattusin and cryptin-4 were incubated with 90 μl of 5×10^5 CFU/ml Staphylococcus aureus ATCC 25923 at the concentration of 2 μM each or with E. coli O157:H7 at the concentration of 4 μM each in 25 mM sodium phosphate buffer, pH 7.4, with and without 100 mM NaCl. The reaction was incubated at 37° C. for 10, 30, 60, 120 and 240 min and diluted rapidly with ice-cold PBS and plated immediately. Plates were incubated at 37° C. for 14-18 hours and viable bacteria were counted.
# S. aureus [5] = assay: effect of salinity on antibacterial activity; format: cell-based; conditions: 2 μM peptide, 4 h, up to 200 mM NaCl
# Protocol: (§5) FIG. 6. Effect of salinity on the antibacterial activity of rattusin against S. aureus (A) and E. coli O157:H7 (B). S. aureus and E. coli were incubated with 2 and 4 μM of rattusin, or an equal volume of 0.01% acetic acid (no peptide) in 25 mM sodium phosphate buffer, pH 7.4, 1% TSB with increasing concentrations of NaCl, for 4 h. Surviving bacteria were plated and counted. Data shown are means ± SEM of two independent experiments.
# E. coli O157:H7 [6] = assay: effect of salinity on antibacterial activity; format: cell-based; conditions: 4 μM peptide, 4 h, up to 200 mM NaCl
# Protocol: as §5
# Caco-2 cells = assay: cytotoxicity assay, alamarBlue dye; format: cell-based, human; conditions: 100 μM peptide, 24 h, DMEM with and without 10% FBS
# Protocol: FIG. 8. Absence of cytotoxicity of rattusin and cryptdin-4 to Caco-2 cells. Cells were incubated with 100 μM of rattusin, cryptdin-4 or fowlicidin-1 for 24 h in DMEM with and without 10% fetal bovine serum for 24 hours. Cell viability was measured with an alamarBlue dye-based method. Data are representative of two independent experiments done in duplicate.
# Cytotoxicity against human colon adenocarcinoma (CACO-2) cell line (ATCC, Manassas, Va.) was measured using alamarBlue dye (Biosource, Camarillo, Calif.) as described previously (26, 27). Briefly, CACO-2 cells were seeded into 96 well plate at 5×10^4 in Dulbecco's modified Eagle's medium (DMEM) with 10% FBS and were grown overnight. The next day cells were washed once with DMEM followed by the addition of fresh DMEM with and without 10% FBS and 100 μM of rattusin or cryptdin-4 or fowlicidin-1. […] The plate was read with excitation at 545 nm and emission at 590 nm. The percentage of cell death was calculated as [1−(Fpeptide−Fbackground)/(Facetic acid−Fbackground)]×100, where Fpeptide is the fluorescence of cells exposed to 100 μM peptide, Facetic acid is the fluorescence of cells exposed to 0.01% acetic acid only, and Fbackground is the background fluorescence of 10% alamarBlue dye in cell culture medium without cells.
# S. aureus ATCC 25923 = assay: kinetics of bacterial killing, colony counting assay; format: cell-based, Staphylococcus aureus; conditions: 2 μM peptide
# Protocol: as §3, with “FIG. 5.” for “FIG. 4.”, “of S. aureus” for “of E. coli O157:H7”, “HD-5. S. aureus” for “HD-5. E. coli O157:H7”, “ATCC 25923” for “ATCC 700728”, “with 2” for “with 4”
# as §4
# bacteria = assay: preliminary antibacterial studies, reduced versus refolded rattusin; format: cell-based; conditions: data not shown
# Description: Similar to several α- and β-defensins (49-52), the central cysteine-rich motif of rattusin is flanked by long flexible N- and C-terminal tails, which are primarily composed of charged and uncharged polar residues (Table 2). The impact of N- and C-terminal tails and five cysteines of rattusin on its antibacterial, cytotoxic, chemotactic, and immuno-modulatory functions is investigated.
Molecule,antibacterial activity in the presence of 100 mM NaCl [1],activity against E. coli in the presence of MgCl2 (E. coli O157:H7 [2]),effect of Mg2+ on activity against S. aureus (S. aureus [3]),killing of E. coli in the presence of 100 mM NaCl [4],killing of E. coli [4],antibacterial activity with increasing concentrations of NaCl (S. aureus [5]),antibacterial activity with increasing concentrations of NaCl (E. coli O157:H7 [6]),cytotoxicity to Caco-2 cells (Caco-2 cells),killing of S. aureus in the presence of 100 mM NaCl (S. aureus ATCC 25923),antibacterial activity in high salt (bacteria)
"I: LRVRRTLQCSCRRVCRNTCSCIRLSRSTYAS / II: LRVRRTLQCSCRRVCRNTCSCIRLSRSTYAS (disulfide I:9-II:21, I:11-II:19, I:15-II:15, I:19-II:11, I:21-II:9) [Rattusin]",remained largely unchanged,largely unaffected,did not inhibit; also recorded: potentiated,slightly delayed with a complete killing occurring at 4 h,three logs,maintained antibacterial activity,maintained antibacterial activity,no cytotoxicity,largely unaffected,
"LRVRRTLQCSCRRVCRNTCSCIRLSRSTYAS [reduced peptide, rattusin in the reduced form, without disulfide bonds]",,,,,,,,,,lost significant activities
B1,,,,completely inactivated,three logs,,,,significantly inhibited,

# Reference: patent publication US7521535B2, “Anti-microbial defensin-related peptides and methods of use” (priority 2006, dated 2009)
